Values of other authors, collected in paper PMC4303307 (Biochemistry, 2014).
Where no end group is shown, it is not given here.

System: γ-crystallin
Conditions: cited from earlier work

**Q.** What does the source list for “MAC peptide with an acetylated Lys 70: the MAC peptide with an acetylated Lys 70 used by Nahomi et al. (K(Ac)FVIFLDVKHFSPEDLTVK; UniProt P02489 70-88, looked up, fragment)”?
**A.** chaperone activity of acetylated Lys vs Asp at the N-terminal end: enhanced chaperone activity; increase of chaperone activity over nonacetylated peptide (in vitro, γ-crystallin substrate): ~15%
